System: C4-2 cells
Experiment: MTT viability assay, C4-2 cells
Type: cell-based
Conditions: 5 μM, 72 h
Excerpt: Biological Characterization. ITC-ARi hybrid drugs effectively reduce the viability of PCa cells. By using an MTT assay, it was first examined if the newly synthesized hybrid drugs affect the viability of CRPC-relevant PCa cells. PCa VCaP cells naturally express abundant wild type FL AR as well as AR splice variants (e.g., AR-V7). These cells were, therefore, used as one of the cell culture models in this work to investigate the drug-caused viability loss and AR downregulation.

CC(=O)N[C@H](CSC(=S)NCCCCCCc1ccc(N2C(=S)N(c3ccc(C#N)c(C(F)(F)F)c3)C(=O)C2(C)C)cn1)C(=O)O [2-63, N-acetyl-S-((6-(5-(3-(4-cyano-3-(trifluoromethyl)phenyl)-5,5-dimethyl-4-oxo-2-thioxoimidazolidin-1-yl)pyridine-2-yl)hexyl)carbamothioyl)-D-cysteine]
relative potency in viability reduction, C4-2 cells: 12b>2-63>PEITC-NAC

Reference: US12133846B2, “Electrophilic androgen receptor (AR) antagonists for AR downregulation and ferroptosis induction in cancer cells” (priority 2019, dated 2024)
